The source of these data is paper PMC4431182 (2015).

Assay in all cases: electrochemical aptamer-based sensor, square wave voltammetry
For experiment [1], the system named is High-Gain Parent (RNA, aptamer) CUUGGUUUAGGUAAUGAG
As to conditions: Na+ 100 mM, Mg2+ 5 mM; 20 mM Tris, pH 7.4; surface-immobilised aptamer; apparent.

Experiment [2] relates to 7UC (RNA, aptamer) CUUGGUCUAGGUAAUGAG
As to conditions: Na+ 100 mM, Mg2+ 5 mM; 20 mM Tris, pH 7.4; surface-immobilised aptamer; no quantitative binding, 3% signal change at 30 µM tobramycin.

Experiment [3] deals with 7UG (RNA, aptamer) CUUGGUGUAGGUAAUGAG
As to conditions: Na+ 100 mM, Mg2+ 5 mM; 20 mM Tris, pH 7.4; surface-immobilised aptamer; no quantitative binding, -9% signal change at 30 µM tobramycin.

Experiment [4] relates to 3-UAC (RNA, aptamer) CUUGGUUUAGGUAAUGAGUAC
As to conditions: Na+ 100 mM, Mg2+ 5 mM; 20 mM Tris, pH 7.4; surface-immobilised aptamer; apparent.

The subject of experiment [5] is 16GU (RNA, aptamer) CUUGGUUUAGGUAAUUAG
As to conditions: Na+ 100 mM, Mg2+ 5 mM; 20 mM Tris, pH 7.4; surface-immobilised aptamer; apparent.

Take `NC[C@H]1O[C@H](O[C@H]2[C@H](O)[C@@H](O[C@H]3O[C@H](CO)[C@@H](O)[C@H](N)[C@H]3O)[C@H](N)C[C@@H]2N)[C@H](N)C[C@@H]1O`: the KD in experiment [1] was determined as 80 ± 10 nM. Also, the binding result in experiment [2] and in experiment [3] was “no” each time. The Kd in experiment [4] came to 170 ± 30 nM; in experiment [5], 3000 ± 400 nM.
